Ki data for 9 compounds are collected here from patent publication US10195201B2, “Heteroaryl-pyrimidinone compounds as PDE2 inhibitors” (Merck Sharp & Dohme Corp., priority 2015, dated 2019).

The structures appear in SMILES notation. Like-named read-outs stand apart in the source and are kept apart here.

Experiment [1] has as its target Rhesus PDE2A3 (Macaca mulatta, UniProt B3VTJ2). In words: PDE2 fluorescence polarization (IMAP FP) inhibition assay, rhesus enzyme. Type of experiment: biochemical, rhesus macaque. The protocol: (§1) The activity of the compounds in accordance with the present invention as PDE2 inhibitors may be readily determined using a fluorescence polarization (FP) methodology (Huang, W., et al., J. Biomol Screen, 2002, 7: 215).
In a typical experiment the PDE2 inhibitory activity of the compounds of the present invention was determined in accordance with the following experimental method. Rhesus PDE2A3 was amplified from rhesus macaque brain cDNA (Biochain Institute, Hayward, Calif.) using primers based on human PDE2A sequence (accession NM_002599.3) where the forward primer containing a Kozak consensus was 5′-[…]-3′ and the reverse primer was 5′-[…]-3′. Amplification with Easy-A High-Fidelity PCR cloning enzyme (Stratagene, La Jolla, Calif.) was 95° C. for 2 minutes followed by thirty three cycles of 95° C. for 40 seconds, 52° C. for 30 seconds, and 72° C. for 2 minutes 48 seconds. Final extension was 72° C. for 7 minutes. The PCR product was TA cloned into pcDNA3.3-TOPO (Invitrogen, Carlsbad, Calif.) according to standard protocol. A consensus sequence was developed from multiple clones and then deposited into GenBank (EU812167). AD293 cells (Stratagene, La Jolla, Calif.) with 70-80% confluency were transiently transfected with rhesus PDE2A3/pcDNA3.3-TOPO using Lipofectamine 2000 according to manufacturer specifications (Invitrogen, Carlsbad, Calif.). Cells were harvested 48 hours post-transfection and lysed by sonication (setting 3, 10×5 sec pulses) in a buffer containing 20 mM HEPES pH 7.4, 1 mM EDTA and Complete Protease Inhibitor Cocktail Tablets (Roche, Indianapolis, Ind.). Lysate was collected by centrifugation at 75,000×g for 20 minutes at 4° C. and supernatant utilized for evaluation of PDE2 activity. The fluorescence polarization assay for cyclic nucleotide phosphodiesterases was performed using an IMAP® FP kit supplied by Molecular Devices, Sunnyvale, Calif. (product # R8139). […] Assays were performed at room temperature in 384-well microtiter plates with an incubation volume of 20.2 μL. Solutions of test compounds were prepared in DMSO and serially diluted with DMSO to yield 8 μL of each of 10 solutions differing by 3-fold in concentration, at 32 serial dilutions per plate. […] 0% of inhibition is determined by using DMSO (1% final concentrations).
A Labcyte Echo 555 (Labcyte, Sunnyvale, Calif.) is used to dispense 200 nL from each well of the titration plate to the 384 well assay plate. Ten microliters of a solution of enzyme (1/2000 final dilution from aliquots; sufficient to produce 20% substrate conversion) was added to the assay plate. Next 10 uL of a separate solution of the substrate FAM-labeled cAMP (50 nM final concentration product # R7506 from Molecular Devices) and the activator cGMP (1 uM final concentration), prepared in the assay buffer (10 mM Tris HCl, pH 7.2, 10 mM MgCl2, 0.05% NaN3 0.01% Tween-20, and 1 mM DTT) was added to the assay plate and shaken to mix. The reaction is allowed to proceed at room temperature for 60 minutes. A binding solution is then made from the kit components, comprised of 80% Solution A, 20% Solution B and binding reagent at a volume of 1/600 the total binding solution. The enzymatic reaction is stopped by addition of 60 μL of the binding solution to each well of the assay plates and the plates are sealed and shaken for 30 seconds. The plate was incubated at room temperature for at least one hour prior to determining the fluorescence polarization (FP). The parallel and perpendicular fluorescence of each well of the plate was measured using a Tecan Genios Pro plate reader (Tecan, Switzerland) or Perkin Elmer EnVision™ plate reader (Waltham, Mass.). Fluorescence polarization (mP) was calculated from the parallel (S) and perpendicular (P) fluorescence of each sample well and the analogous values for the median control well, containing only substrate (So and Po), using the following equation: Polarization (mP)=1000*(S/So−P/Po)/(S/So+P/Po).

The target of experiment [2] is human PDE2A1 (Homo sapiens (Human), UniProt O00408). Briefly: PDE2 fluorescence polarization (IMAP FP) inhibition assay, human enzyme. It counts as biochemical. The protocol: as §1
Sequence of human PDE2A1 (O00408 other isoform, or with tags, fused parts or gaps): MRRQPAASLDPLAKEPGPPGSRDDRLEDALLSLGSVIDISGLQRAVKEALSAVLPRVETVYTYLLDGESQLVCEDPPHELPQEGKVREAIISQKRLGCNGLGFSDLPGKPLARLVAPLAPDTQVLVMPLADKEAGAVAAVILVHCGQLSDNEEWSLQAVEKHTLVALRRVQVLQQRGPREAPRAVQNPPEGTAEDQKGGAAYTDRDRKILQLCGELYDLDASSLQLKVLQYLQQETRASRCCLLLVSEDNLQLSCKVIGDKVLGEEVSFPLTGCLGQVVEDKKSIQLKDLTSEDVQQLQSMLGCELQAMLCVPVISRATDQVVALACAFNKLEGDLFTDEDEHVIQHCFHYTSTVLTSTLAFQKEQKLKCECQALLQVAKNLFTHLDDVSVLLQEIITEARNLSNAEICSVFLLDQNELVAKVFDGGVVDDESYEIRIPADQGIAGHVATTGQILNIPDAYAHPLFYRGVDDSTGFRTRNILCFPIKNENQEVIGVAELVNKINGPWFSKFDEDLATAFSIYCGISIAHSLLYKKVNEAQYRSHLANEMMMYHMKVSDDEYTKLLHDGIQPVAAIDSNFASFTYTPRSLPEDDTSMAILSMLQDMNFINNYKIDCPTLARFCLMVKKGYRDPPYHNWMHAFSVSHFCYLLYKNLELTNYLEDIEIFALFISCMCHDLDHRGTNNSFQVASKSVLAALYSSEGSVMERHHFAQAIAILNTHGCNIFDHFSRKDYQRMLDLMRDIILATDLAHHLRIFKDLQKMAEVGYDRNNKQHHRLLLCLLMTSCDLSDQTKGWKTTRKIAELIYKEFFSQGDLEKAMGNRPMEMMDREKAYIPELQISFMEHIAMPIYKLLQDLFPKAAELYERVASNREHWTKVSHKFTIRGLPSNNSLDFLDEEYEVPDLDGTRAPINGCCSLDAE
Selectivity for PDE2, as compared to other PDE families, was assessed using the IMAPR technology. Human PDE10A2 enzyme was prepared from cytosolic fractions of transiently transfected HEK cells. All other PDE's were GST Tag human enzyme expressed in insect cells and were obtained from BPS Bioscience (San Diego, Calif.): PDE1A (Cat#60010), human PDE2A1(Cat#60020), PDE3A (Cat#60030), PDE4A1A (Cat#60040), PDE5A1 (Cat#60050), PDE6C (Cat#60060), PDE7A (Cat#60070), PDE8A1 (Cat#60080), PDE9A2 (Cat#60090), PDE11A4 (Cat#60110).
Assays for PDE 1 through 11 were performed in parallel at room temperature in 384-well microtiter plates with an incubation volume of 20.2 μL. Solutions of test compounds were prepared in DMSO and serially diluted with DMSO to yield 30 μL of each of ten solutions differing by 3-fold in concentration, at 32 serial dilutions per plate. […] A Labcyte POD 810 (Labcyte, Sunnyvale, Calif.) was used to dispense 200 nL from each well of the titration plate to make eleven copies of the assay plate for each titration, one copy for each PDE enzyme. A solution of each enzyme (dilution from aliquots, sufficient to produce 20% substrate conversion) and a separate solution of FAM-labeled cAMP or FAM-labeled cGMP from Molecular Devices (Sunnyvale, Calif., product # R7506 or cGMP#R7508), at a final concentration of 50 nM were made in the assay buffer (10 mM Tris HCl, pH 7.2, 10 mM MgCl2, 0.05% NaN3 0.01% Tween-20, and 1 mM DTT). Note that the substrate for PDE2 is 50 nM FAM cAMP containing 1000 nM of cGMP. The enzyme and the substrate were then added to the assay plates in two consecutive additions of 10 μL and then shaken to mix. The reaction was allowed to proceed at room temperature for 60 minutes. A binding solution was then made from the kit components, comprised of 80% Solution A, 20% Solution B and binding reagent at a volume of 1/600 the total binding solution. The enzymatic reaction was stopped by addition of 60 μL of the binding solution to each well of the assay plate. The plates were sealed and shaken for 10 seconds. The plates were incubated at room temperature for one hour, then the parallel and perpendicular fluorescence was measured using a Tecan Genios Pro plate reader (Tecan, Switzerland). The apparent inhibition constants for the compounds against all 11 PDE's was determined from the parallel and perpendicular fluorescent readings as described for PDE10 FP assay using the following apparent KM values for each enzyme and substrate combination: PDE1A (FAM cGMP) 70 nM, human PDE2A1 (FAM cAMP) 10,000 nM, PDE3A (FAM cAMP) 50 nM, PDE4A1A (FAM cAMP) 1500 nM, PDE5A1 (FAM cGMP) 400 nM, PDE6C (FAM cGMP) 700 nM, PDE7A (FAM cAMP) 150 nM, PDE8A1 (FAM cAMP) 50 nM, PDE9A2 (FAM cGMP) 60 nM, […] (FAM cAMP) 150 nM, PDE11A4 (FAM cAMP) 1000 nM. The intrinsic PDE2 inhibitory activity of a compound which may be used in accordance with the present invention may be determined by these assays. […]

Where [3] appears, read: LabA, read-out: rhPDE2 Ki (nM) LabA.
[4] abbreviates: LabA, read-out: hPDE2 Ki (nM) LabA.
[5] abbreviates: LabB, read-out: rhPDE2 Ki (nM) LabB.
The mark [6] stands for this setting: LabB, read-out: hPDE2 Ki (nM) LabB.

Sequence of Rhesus PDE2A3 (B3VTJ2 1-941): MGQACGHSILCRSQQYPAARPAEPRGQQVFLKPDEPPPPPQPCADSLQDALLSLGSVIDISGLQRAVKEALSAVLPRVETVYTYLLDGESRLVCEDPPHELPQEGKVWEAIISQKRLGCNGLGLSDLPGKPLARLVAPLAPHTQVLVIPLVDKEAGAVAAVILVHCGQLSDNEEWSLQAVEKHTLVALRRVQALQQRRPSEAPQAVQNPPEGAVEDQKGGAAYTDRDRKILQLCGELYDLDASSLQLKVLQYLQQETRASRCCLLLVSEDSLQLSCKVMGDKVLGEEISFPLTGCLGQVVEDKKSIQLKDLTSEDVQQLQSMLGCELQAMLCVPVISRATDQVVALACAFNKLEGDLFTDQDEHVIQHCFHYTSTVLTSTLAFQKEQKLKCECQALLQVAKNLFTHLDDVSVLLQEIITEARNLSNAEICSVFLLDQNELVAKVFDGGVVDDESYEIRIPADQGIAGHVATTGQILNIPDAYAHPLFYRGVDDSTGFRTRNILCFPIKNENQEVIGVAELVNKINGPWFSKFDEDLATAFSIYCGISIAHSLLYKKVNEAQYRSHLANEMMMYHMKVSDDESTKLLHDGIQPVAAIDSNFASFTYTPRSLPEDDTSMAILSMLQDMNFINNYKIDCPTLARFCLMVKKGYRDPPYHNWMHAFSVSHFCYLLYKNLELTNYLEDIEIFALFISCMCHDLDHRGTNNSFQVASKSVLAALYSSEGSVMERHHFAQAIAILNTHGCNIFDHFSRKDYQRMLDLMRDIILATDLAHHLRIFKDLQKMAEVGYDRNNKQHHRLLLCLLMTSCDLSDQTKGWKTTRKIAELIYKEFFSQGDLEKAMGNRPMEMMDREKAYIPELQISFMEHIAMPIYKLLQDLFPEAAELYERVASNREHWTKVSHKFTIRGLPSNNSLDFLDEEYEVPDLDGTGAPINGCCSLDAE

In the case of `Cc1nc(-c2cc(=O)[nH]c(C)n2)cc(C(C)c2ccc(C(F)(F)F)cc2)n1` (stereo not shown) [Example 48, 2,2′-dimethyl-6′-(1-(4-(trifluoromethyl)phenyl)ethyl)-[4,4′-bipyrimidin]-6(1H)-one], the results for the Ki in experiment [1] (setting [3]) and in experiment [2] (setting [4]) were 516 nM and 312 nM, respectively.
Regarding `COc1ccc(Cc2nc(-c3cn(C(C)c4ccc(C(F)(F)F)cc4F)cn3)cc(=O)[nH]2)cc1OC` (single isomer, unassigned) [Example 18, (R)- or (S)-2-(3,4-dimethoxy-benzyl)-6-(1-(1-(2-fluoro-4-(trifluoromethyl)phenyl)ethyl)-1H-imidazol-4-yl)pyrimidin-4(3H)-one], the results for the Ki in experiment [1] (setting [3]) and in experiment [2] (setting [4]) were 2.3 nM and 1.4 nM, respectively.
With `Cc1nc(-c2ncc(C(C)c3ccc(C(F)(F)F)cc3)s2)cc(=O)[nH]1` (stereo not shown) [Example 1, 2-Methyl-6-(5-(1-(4-(trifluoromethyl)phenyl)ethyl)thiazol-2-yl)pyrimidin-4(3H)-one], the Ki in experiment [1] (setting [3]) was determined as 96 nM; in experiment [1] (setting [5]), 481 nM; in experiment [2] (setting [4]), 60 nM.
For the compound `Cc1nc(-c2nnc([C@H](C)c3ccc(C(F)(F)F)cc3F)s2)cc(=O)[nH]1` (single isomer, unassigned) [Example 4], the Ki was determined as 20 nM in experiment [1] (setting [5]) and 22 nM in experiment [2] (setting [6]).
Consider `Cc1nc(-c2ncc(C(C)c3ccc(C(F)(F)F)cc3)o2)cc(=O)[nH]1` (stereo not shown) [Example 8, 2-Methyl-6-(5-(1-(4-(trifluoromethyl)phenyl)ethyl)oxazol-2-yl)pyrimidin-4(3H)-one], for which the Ki in experiment [1] (setting [3]) came to 352 nM; in experiment [2] (setting [4]), 403 nM.
As for `Cc1nc(-c2nnc([C@H](C)c3ccc(C(F)(F)F)cc3)o2)cc(=O)[nH]1` (single isomer, unassigned) [Example 9], the Ki in experiment [1] (setting [3]) was 86 nM; in experiment [1] (setting [5]), 159 nM; in experiment [2] (setting [4]) it was 79 nM.
For the compound `Cc1nc(-c2cn(C(C)c3ccc(C(F)(F)F)cc3)cn2)cc(=O)[nH]1` (single isomer, unassigned) [Example 17, (R)- or (S)-2-methyl-6-(1-(1-(4-(trifluoro-methyl)phenyl)ethyl)-1H-imidazol-4-yl) pyrimidin-4 (3H)-one], the values for the Ki in experiment [1] (setting [3]) and in experiment [2] (setting [4]) were 106 nM and 76 nM, respectively.
Consider `Cc1nc(-c2nnc([C@H](C)c3ccc(C(F)(F)F)cc3F)s2)cc(=O)[nH]1` (single isomer, unassigned) [Example 5], for which the Ki in experiment [1] (setting [5]) turned out to be 19 nM; in experiment [2] (setting [6]), 18 nM.
Take `Cc1nc(-c2nnc([C@H](C)c3ccc(C(F)(F)F)cc3)s2)cc(=O)[nH]1` (single isomer, unassigned) [Example 7]: the Ki in experiment [1] (setting [3]) is 21 nM; in experiment [1] (setting [5]), 57 nM; in experiment [2] (setting [4]), 13 nM; in experiment [2] (setting [6]), 62 nM.
